The values below come from patent publication US11072628B2, “Nucleoside analogues for the treatment of parasitic infections” (UNIVERSITEIT GENT, priority 2017, dated 2021).

Series [1] is described as follows: Cytotoxicity against MRC-5 fibroblasts. To be noted: human, MRC-5 fibroblasts, cytotoxicity. As for the experimental part: Cytotoxicity was assayed against MRC-5 fibroblasts. Results are depicted in Tables 4 and 5.
The next series deals with T. brucei Squib 427. Description: In vitro drug susceptibility, T. brucei Squib 427 (resazurin). The series is classed as cell-based, Trypanosoma brucei brucei. To be noted: Trypanosoma brucei, read-out: T. brucei brucei EC50, Table 1; average of 2-4 independent determinations. Here is the method:
(§1) All trypanosome strains were cultured in the standard HMI-9 medium supplemented with 10% fetal bovine serum (FBS) at 37° C. in a 5% CO2 atmosphere.
In general terms: Alamar Blue is a resazurin reagent that responds to reducing activity.

The test system of series [2] is T. b. rhodesiense STIB-900. The series can be described thus: In vitro drug susceptibility, T. b. rhodesiense STIB-900 (resazurin). To be noted: Trypanosoma brucei, RHODESIENSE, read-out: T. brucei rhod. EC50. Format: cell-based, Trypanosoma brucei rhodesiense. As for the experimental part:
as §1

For a further series, the system named is T. brucei AnTAR1 PPYRE9. Description: In vivo antiparasitic activity in mice (T. brucei; stage-II disease model). Further details: species or system Trypanosoma brucei. To be noted: treatment from 21 dpi for 5 days; 25 mg/kg PO b.i.d. or 25, 12.5 or 6.25 mg/kg s.i.d. As for the experimental part: The test compound, FH7429_D was formulated in 5% (V/V) Tween80 at 4 mg/mL and administered according to body weight (25 mg/kg bid., oral gavage) for 5 days. Treatment commenced at 21 dpi, in mice which had positive CNS involvement (BLI). Two reference groups: vehicle control as well as melarsoprol (120 mg/kg, s.i.d. topical for 3 days) were included. Topical melarsoprol formulation was prepared as following: 3.6% melarsprol in propylene glycol was used to prepare a 1.5% hydroxypropylcellulose (HPC) gel.
Parasitemia analysis was performed by microscopic evaluation of tail vein blood samples at 21 (before treatment initiation), 25, 28, 32 and 35 dpi. Bioluminescent imaging (BLI) was performed at 7, 14, 21, 28, 35, 43, 50 and 53 dpi. BLI experiments were performed as following: D-luciferin (15 mg/kg) was injected intraperitoneally, and mice were subsequently anaesthetized using isoflurane. The luminescent signal was measured over a 5 second as well as 5-minute exposure time, both for the ventral as well as the dorsal side of the animals.

Series [3] deals with T. b. brucei Squib 427. The series can be described thus: In vivo antiparasitic activity in mice (T. brucei; acute model). Further details: species or system Trypanosoma brucei brucei. Here is the method: The test compound of the invention was formulated in 10% (V/V) PEG400 in water at 2 mg/mL and was freshly prepared at every administration. The test compound was administered orally (PO) b.i.d. for 5 days at 25 mg/kg. The reference drug suramin was formulated in PBS at 2.5 mg/mL and administered s.i.d. IP for 5 days at 10 mg/kg. Treatment was initiated ½ hour prior to the IP infection.

The test system of series [4] is T. cruzi Tulahuen CL2 β galactosidase strain. Description: T. cruzi Tulahuen CL2 β galactosidase strain on MRC-5SV2 cells (CPRG). Format: cell-based, Trypanosoma cruzi. To be noted: Trypanosoma cruzi, TULAHUEN, MRC-5 SV2; Table 2; average of 2-3 independent replicates. As for the experimental part: All cultures and assays were conducted at 37° C./5% CO2. […] The results were expressed as % reduction in parasite burdens compared to control wells from which an EC50 was calculated.

Series [5] has as its system T. b. brucei Squib 427. To be noted: comparison statement, not tested here; cited from earlier work.

“Also recorded” adds a separate entry of the source.

Usually EC50 stands for the concentration at which the effect is half-maximal. Consider `Nc1ncnc2c1ccn2[C@@H]1O[C@H](CO)C[C@H]1O` [FH7429_D, 4-amino-N7-(3′-deoxy-β-D-ribofuranosyl)-pyrrolo[2,3-d]pyrimidine], for which the EC50 in series [1] (MRC-5 EC50, Table 1) is more than 64 µM; in series [1] (MRC-5 EC50, Table 2), more than 64 µM; in the series with T. brucei Squib 427 it was 0.05 µM; in series [2], 0.0005 µM; in series [4], more than 64 µM. Besides, the “cure in stage-II HAT model” value with T. brucei AnTAR1 PPYRE9 was “considered cured”. The “parasitemia (BLI or tail vein blood analysis)” value in the series on T. brucei AnTAR1 PPYRE9 was “did not show any signs of parasitemia from 28 dpi onwards”. Also, the “parasitological cure (sub-inoculation in naive mice)” value in the series on T. b. brucei Squib 427 [3] (animals surviving until day 21 post infection) was “total parasitological cure; also recorded: able cure an acute infection”. In addition, the “clinical symptoms of trypanosomiasis / parasitemia” value with T. b. brucei Squib 427 [3] (infected mice, 5 consecutive days, test compound 25 mg/kg PO b.i.d. (FH7429_D also 10 mg/kg s.i.d. IP), suramin 10 mg/kg) is reported as “no clinical symptoms of trypanosomiasis were observed”. The adverse drug effects result in the series on T. b. brucei Squib 427 [3] (mice, 5 days treatment) was “No signs of adverse drug effects were observed”.
Turning to `Nc1ncnc2c1ncn2[C@@H]1O[C@H](CO)C[C@H]1O` [cordycepin, 3′-deoxy-adenosine], the “clearance of T. brucei infection as a monotherapy” value in the series with T. b. brucei Squib 427 [5] is “unable to clear the infection”.
